Assay results taken from US20040058898A1, “Pharmaceutical composition for alleviating the violence of a mammal comprising nortestosterone derivatives” (priority 2002, published 2004).
Entries after “also recorded” stand apart in the source; their conditions may differ.

Tests used:
Type in all cases: in vivo
[1] = test system: male goats which violently behaved, cried and did not take feed; experiment: Alleviation of the violence and stimulation of the appetite in male goat; conditions: male goat 40 kg, intramuscular
Excerpt: (§1) After administration, their behaviors and appetites were observed.

[2] = test system: male cats which violently behaved, cried and did not take feed; experiment: Alleviation of the violence and stimulation of the appetite in male cat; conditions: male cat 1 kg, intramuscular
Excerpt: as §1

[3] = test system: male ostriches which violently behaved, cried and did not take feed; experiment: Alleviation of the violence and stimulation of the appetite in male ostrich; conditions: male ostrich 100 kg, intramuscular
Excerpt: as §1

[4] = test system: male horses which violently behaved, cried and did not take feed; experiment: Alleviation of the violence and stimulation of the appetite in male horse; conditions: male horse 200 kg, intramuscular
Excerpt: as §1

[5] = test system: male dogs which violently behaved, cried and did not take feed; experiment: Alleviation of the violence and stimulation of the appetite in male dog; conditions: male dog 40 kg, intramuscular
Excerpt: as §1

[6] = test system: male lion which violently behaved, cried and did not take feed; experiment: Alleviation of the violence and stimulation of the appetite in male lion
[7] = 40 mg (1 mg per kg), Experimental Example 26
[8] = 40 mg (1 mg per kg), Experimental Example 26, listed as 17-decanoate-4-estren-3-one
[9] = 1 mg per Table 5 (1 mg per kg; 100 mg [sic]), Experimental Example 22
[10] = 100 mg (1 mg per kg), Experimental Example 1
[11] = 200 mg (1 mg per kg), Experimental Example 24
[12] = 40 mg (1 mg per kg), Experimental Example 20
[13] = male lion 100 kg, 100 mg (1 mg per kg), Experimental Example 28
[14] = male lion 100 kg, 10, 20, 50, 100, 150, 200, 500 and 1000 mg (0.1 to 10 mg per kg), Experimental Example 29

SMILES: CCCCCCCCCC(=O)O[C@H]1CC[C@H]2[C@@H]3CCC4=CC(=O)CC[C@@H]4[C@H]3CC[C@]12C [17β-decanoate-4-estren-3-one]
- Violence and appetite, After administration: appetite ([1]; 4 mg (0.1 mg per kg), Experimental Example 27): stimulated appetite
- Violence and appetite, After administration: appetite ([1]; 8 mg (0.2 mg per kg), Experimental Example 27): stimulated appetite
- Violence and appetite, After administration: appetite ([1]; 20 mg (0.5 mg per kg), Experimental Example 27): stimulated appetite
- Violence and appetite, After administration: appetite [1, 7]: stimulated appetite
- feed intake after administration [1, 7]: increased feed intake
- Violence and appetite, After administration: appetite [1, 8]: appetite stimulated
- Violence and appetite, After administration: violence [1, 8]: violence of estrus alleviated
- Violence and appetite, After administration: appetite ([1]; 40 mg (1.0 mg per kg), Experimental Example 27): stimulated appetite
- Violence and appetite, After administration: appetite ([1]; 60 mg (1.5 mg per kg), Experimental Example 27): stimulated appetite
- Violence and appetite, After administration: appetite ([1]; 80 mg (2.0 mg per kg), Experimental Example 27): stimulated appetite
- Violence and appetite, After administration: appetite ([1]; 200 mg (5.0 mg per kg), Experimental Example 27): stimulated appetite
- Violence and appetite, After administration: appetite ([1]; 400 mg (10 mg per kg), Experimental Example 27): stimulated appetite
- Violence and appetite, After administration: appetite ([2]; 0.1 mg (0.1 mg per kg), Experimental Example 23): stimulated appetite
- Violence and appetite, After administration: appetite ([2]; 0.2 mg (0.2 mg per kg), Experimental Example 23): stimulated appetite
- Violence and appetite, After administration: appetite ([2]; 0.5 mg (0.5 mg per kg), Experimental Example 23): stimulated appetite
- Violence and appetite, After administration: appetite ([2]; 1 mg (1.0 mg per kg), Experimental Example 23): stimulated appetite
- Violence and appetite, After administration: appetite [2, 9]: appetite stimulated; also recorded: stimulated appetite
- Violence and appetite, After administration: violence [2, 9]: violence of estrus alleviated
- feed intake after administration [2, 9]: increased feed intake
- Violence and appetite, After administration: appetite ([2]; 1.5 mg (1.5 mg per kg), Experimental Example 23): stimulated appetite
- Violence and appetite, After administration: appetite ([2]; 2 mg (2.0 mg per kg), Experimental Example 23): stimulated appetite
- Violence and appetite, After administration: appetite ([2]; 5 mg (5.0 mg per kg), Experimental Example 23): stimulated appetite
- Violence and appetite, After administration: appetite ([2]; 10 mg (10 mg per kg), Experimental Example 23): stimulated appetite
- Violence and appetite, After administration: appetite ([3]; 10 mg (0.1 mg per kg), Experimental Example 2): stimulated appetite
- Violence and appetite, After administration: appetite ([3]; 20 mg (0.2 mg per kg), Experimental Example 2): stimulated appetite
- Violence and appetite, After administration: appetite ([3]; 50 mg (0.5 mg per kg), Experimental Example 2): stimulated appetite
- Violence and appetite, After administration: appetite [3, 10]: appetite stimulated; also recorded: stimulated appetite
- Violence and appetite, After administration: violence [3, 10]: violence of estrus alleviated
- feed intake after administration [3, 10]: increased feed intake
- Violence and appetite, After administration: appetite ([3]; 100 mg (1.0 mg per kg), Experimental Example 2): stimulated appetite
- Violence and appetite, After administration: appetite ([3]; 150 mg (1.5 mg per kg), Experimental Example 2): stimulated appetite
- Violence and appetite, After administration: appetite ([3]; 200 mg (2.0 mg per kg), Experimental Example 2): stimulated appetite
- Violence and appetite, After administration: appetite ([3]; 500 mg (5.0 mg per kg), Experimental Example 2): stimulated appetite
- Violence and appetite, After administration: appetite ([3]; 1000 mg (10 mg per kg), Experimental Example 2): stimulated appetite
- Violence and appetite, After administration: appetite ([4]; 20 mg (0.1 mg per kg), Experimental Example 25): stimulated appetite
- Violence and appetite, After administration: appetite ([4]; 40 mg (0.2 mg per kg), Experimental Example 25): stimulated appetite
- Violence and appetite, After administration: appetite ([4]; 100 mg (0.5 mg per kg), Experimental Example 25): stimulated appetite
- Violence and appetite, After administration: appetite [4, 11]: appetite stimulated; also recorded: stimulated appetite
- Violence and appetite, After administration: violence [4, 11]: violence of estrus alleviated
- feed intake after administration [4, 11]: increased feed intake
- Violence and appetite, After administration: appetite ([4]; 200 mg (1.0 mg per kg), Experimental Example 25): stimulated appetite
- Violence and appetite, After administration: appetite ([4]; 300 mg (1.5 mg per kg), Experimental Example 25): stimulated appetite
- Violence and appetite, After administration: appetite ([4]; 400 mg (2.0 mg per kg), Experimental Example 25): stimulated appetite
- Violence and appetite, After administration: appetite ([4]; 1000 mg (5.0 mg per kg), Experimental Example 25): stimulated appetite
- Violence and appetite, After administration: appetite ([4]; 2000 mg (10 mg per kg), Experimental Example 25): stimulated appetite
- Violence and appetite, After administration: appetite ([5]; 4 mg (0.1 mg per kg), Experimental Example 21): stimulated appetite
- Violence and appetite, After administration: appetite ([5]; 8 mg (0.2 mg per kg), Experimental Example 21): stimulated appetite
- Violence and appetite, After administration: appetite ([5]; 20 mg (0.5 mg per kg), Experimental Example 21): stimulated appetite
- Violence and appetite, After administration: appetite [5, 12]: appetite stimulated; also recorded: stimulated appetite
- Violence and appetite, After administration: violence [5, 12]: violence of estrus alleviated
- feed intake after administration [5, 12]: increased feed intake
- Violence and appetite, After administration: appetite ([5]; 40 mg (1.0 mg per kg), Experimental Example 21): stimulated appetite
- Violence and appetite, After administration: appetite ([5]; 60 mg (1.5 mg per kg), Experimental Example 21): stimulated appetite
- Violence and appetite, After administration: appetite ([5]; 80 mg (2.0 mg per kg), Experimental Example 21): stimulated appetite
- Violence and appetite, After administration: appetite ([5]; 200 mg (5.0 mg per kg), Experimental Example 21): stimulated appetite
- Violence and appetite, After administration: appetite ([5]; 400 mg (10 mg per kg), Experimental Example 21): stimulated appetite
- appetite after intramuscular injection [6, 13]: appetite stimulated
- feed intake after administration [6, 13]: increased feed intake
- violence of estrus after intramuscular injection [6, 13]: violence of estrus alleviated
- appetite after intramuscular injection [6, 14]: appetite stimulated
- feed intake after administration [6, 14]: increased feed intake
- violence of estrus after intramuscular injection [6, 14]: violence of estrus alleviated
